Patent EP0466251A1, “Elfamycin-resistant mutants” (priority 1990, dated 1992)

Assays:
[1] = target: T1, wild-type S. ramocissimus EF-Tu (Streptomyces ramocissimus, UniProt P29542); assay: elfamycin binding visualized by non-denaturing PAGE; conditions: 25 µM aurodox, 15 minutes at 37°C; Western blotting detection
T1 construct: made in house; host or cells: E. coli JM101 (pUSrT1-1)
Protocol: (§1) Susceptibility of the isolated EF-Tu to elfamycin is tested in elfamycin binding studies (G. Chinali et al., Eur. J. Biochem. 75 (1977) 55-65,) and in studies on the inhibition of EF-Tu dependent peptide synthesis (C. Glöckner and H. Wolf, cited above). Still another direct elfamycin binding assay has been developed in which the capacity of the EF-Tu protein to bind elfamycins can be visualized by a change in EF-Tu protein migration in the presence of the elfamycin by non-denaturing PAGE (polyacrylamide gel electrophoresis). Upon elfamycin binding to EF-Tu.GDP, a ternary complex is formed which is more negatively charged than the binary EF-Tu.GDP complex (B. Kraal et al, 1989, in The Guanine-Nucleotide Binding Proteins, pp 121-129, Plenum Press, New York). Consequently elfamycin binding, using e.g. aurodox, to Escherichia coli wild-type EF-Tu increases the migration distance into a non-denaturing polyacrylamide gel. Both the methods of peptide synthesis inhibition and visualization of elfamycin binding are the preferred techniques to determine the effect of elfamycin binding on EF-Tu functioning. These susceptibility assays are important if increased elfamycin resistance of EF-Tu has to be established.
For direct visualization of the elfamycin binding capacity, the mutant proteins were expressed in E. coli JM101 essentially as described in Example 3. […]

SrEF-Tu A378F = target: T2, SrEF-Tu A378F (Streptomyces ramocissimus, UniProt P29542, A379F); assay: as above; design: species or system S. ramocissimus; conditions: 25 µM aurodox, 15 minutes at 37°C; Western blotting detection
T2 construct: made in house; host or cells: E. coli JM101
Protocol: as §1
(§2) For direct visualization of the elfamycin binding capacity, the mutant proteins were expressed in E. coli JM101 essentially as described in Example 3. Subsequently, a GDP stabilized S-30, S-100, or purified SrEF-Tu sample was prepared, and incubated with 25 µM aurodox for 15 minutes at 37°C. These samples, and control samples without aurodox were then subjected to non-denaturing 10% polyacrylamide gels and electrophoresed. Detection of the SrEF-Tu species was performed by the Western blotting technique using SrEF-Tu antibodies (Example 1). […] This experiment thus established that elfamycin resistance is most likely the effect of a reduced binding of the elfamycin to the mutant SrEF-Tu proteins.

SrEF-Tu A378P = target: T3, SrEF-Tu A378P (Streptomyces ramocissimus, UniProt P29542, A379P); assay: as above; design: species or system S. ramocissimus; conditions: 25 µM aurodox, 15 minutes at 37°C; Western blotting detection
T3 construct: made in house; host or cells: E. coli JM101
Protocol: as §1, §2

SrEF-Tu A378T = target: T4, SrEF-Tu A378T (Streptomyces ramocissimus, UniProt P29542, A379T); assay: as above; design: species or system S. ramocissimus; conditions: 25 µM aurodox, 15 minutes at 37°C; Western blotting detection
T4 construct: made in house; host or cells: E. coli JM101
Protocol: as §1, §2

SrEF-Tu A378V = target: T5, SrEF-Tu A378V (Streptomyces ramocissimus, UniProt P29542, A379V); assay: as above; design: species or system S. ramocissimus; conditions: 25 µM aurodox, 15 minutes at 37°C; Western blotting detection
T5 construct: made in house; host or cells: E. coli JM101
Protocol: as §1, §2

[2] = target: T6, major EF-Tu species of S. ramocissimus strain R1V (Streptomyces ramocissimus, UniProt P29542, A379V); assay: direct elfamycin binding assay on S-100 extract; conditions: S-100 extract of strain R1V; 25 µM Aurodox
T6 construct: an S-100 extract was prepared from a culture of S. ramocissimus strain R1V; endogenous in cells; host or cells: S. ramocissimus strain R1V (chromosomal tuf1 replaced by the A378V allele)
Protocol: as §2
To establish that S. ramocissimus strain R1V actually expresses the mutated Srtuf1 gene as the main EF-Tu species, an S-100 extract was prepared from a culture of S. ramocissimus strain R1V essentially as described in Example 1. Subsequently this extract was subjected to the direct elfamycin binding assay outlined in Example 6.

T6 sequence (P29542 whole entry A379V): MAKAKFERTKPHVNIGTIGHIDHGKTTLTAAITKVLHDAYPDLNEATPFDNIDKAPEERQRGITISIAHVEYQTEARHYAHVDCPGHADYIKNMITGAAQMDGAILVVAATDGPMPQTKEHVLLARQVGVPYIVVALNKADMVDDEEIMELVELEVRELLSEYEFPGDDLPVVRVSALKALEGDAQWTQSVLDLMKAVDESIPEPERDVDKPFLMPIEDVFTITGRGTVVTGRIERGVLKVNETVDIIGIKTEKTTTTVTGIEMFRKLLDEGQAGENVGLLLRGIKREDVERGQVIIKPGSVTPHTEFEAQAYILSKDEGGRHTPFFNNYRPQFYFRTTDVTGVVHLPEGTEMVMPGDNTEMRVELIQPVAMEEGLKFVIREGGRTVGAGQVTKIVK
T5 sequence (P29542 whole entry A379V): as above
T1 sequence (P29542 whole entry): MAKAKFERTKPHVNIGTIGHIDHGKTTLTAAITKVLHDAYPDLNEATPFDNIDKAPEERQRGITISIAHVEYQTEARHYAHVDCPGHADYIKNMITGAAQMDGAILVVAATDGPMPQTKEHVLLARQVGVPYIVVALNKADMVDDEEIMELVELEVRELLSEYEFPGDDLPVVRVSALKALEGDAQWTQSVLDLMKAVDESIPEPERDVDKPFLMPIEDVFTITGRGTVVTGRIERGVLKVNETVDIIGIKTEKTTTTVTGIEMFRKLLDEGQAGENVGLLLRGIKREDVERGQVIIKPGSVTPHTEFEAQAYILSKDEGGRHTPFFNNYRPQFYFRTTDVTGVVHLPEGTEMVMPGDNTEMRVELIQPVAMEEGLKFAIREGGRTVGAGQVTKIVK
T4 sequence (P29542 whole entry A379T): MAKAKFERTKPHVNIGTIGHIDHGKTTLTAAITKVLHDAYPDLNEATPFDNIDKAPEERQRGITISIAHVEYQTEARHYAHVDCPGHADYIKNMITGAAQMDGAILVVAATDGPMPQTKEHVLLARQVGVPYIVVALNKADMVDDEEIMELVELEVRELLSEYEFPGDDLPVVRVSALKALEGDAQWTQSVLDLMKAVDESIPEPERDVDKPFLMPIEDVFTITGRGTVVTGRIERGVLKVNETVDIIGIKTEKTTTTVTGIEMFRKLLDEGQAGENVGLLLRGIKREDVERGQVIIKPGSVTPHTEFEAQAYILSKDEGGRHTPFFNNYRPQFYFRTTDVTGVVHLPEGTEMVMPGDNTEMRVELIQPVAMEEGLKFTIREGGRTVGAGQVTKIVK
T2 sequence (P29542 whole entry A379F): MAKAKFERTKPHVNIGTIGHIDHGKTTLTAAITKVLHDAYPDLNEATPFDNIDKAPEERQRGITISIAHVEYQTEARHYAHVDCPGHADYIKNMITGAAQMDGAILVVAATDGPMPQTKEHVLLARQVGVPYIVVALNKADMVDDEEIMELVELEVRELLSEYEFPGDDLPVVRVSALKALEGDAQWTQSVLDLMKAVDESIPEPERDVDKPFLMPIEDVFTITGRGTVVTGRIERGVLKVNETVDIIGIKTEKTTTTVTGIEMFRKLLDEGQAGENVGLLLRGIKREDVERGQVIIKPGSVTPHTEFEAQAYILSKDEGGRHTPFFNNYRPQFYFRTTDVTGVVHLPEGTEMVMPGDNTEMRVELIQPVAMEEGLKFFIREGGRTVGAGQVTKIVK
T3 sequence (P29542 whole entry A379P): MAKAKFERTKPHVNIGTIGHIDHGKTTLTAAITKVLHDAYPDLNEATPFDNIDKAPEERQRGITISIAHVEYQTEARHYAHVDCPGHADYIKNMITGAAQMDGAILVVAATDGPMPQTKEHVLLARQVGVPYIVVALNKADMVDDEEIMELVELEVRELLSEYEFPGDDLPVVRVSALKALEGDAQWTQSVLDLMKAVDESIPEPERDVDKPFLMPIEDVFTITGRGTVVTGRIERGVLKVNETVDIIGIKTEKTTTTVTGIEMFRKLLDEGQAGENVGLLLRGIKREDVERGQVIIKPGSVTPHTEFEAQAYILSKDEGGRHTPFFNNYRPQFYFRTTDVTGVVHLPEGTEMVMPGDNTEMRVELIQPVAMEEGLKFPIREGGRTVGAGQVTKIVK

C/C=C\C=C\[C@@H]1O[C@](O)([C@H](CC)C(=O)NC/C=C/C=C(\C)[C@@H](OC)[C@@H](C)[C@@H]2O[C@H](/C=C/C=C/C=C(\C)C(=O)c3c(O)ccn(C)c3=O)[C@H](O)[C@@H]2O)[C@H](O)[C@H](O)C1(C)C [aurodox, N-Methylmocimycin]
elfamycin binding (migration in non-denaturing PAGE) [1]: appears to bind
elfamycin binding (migration in non-denaturing PAGE) (SrEF-Tu A378F): unaffected
elfamycin binding (migration in non-denaturing PAGE) (SrEF-Tu A378P): unaffected
elfamycin binding (migration in non-denaturing PAGE) (SrEF-Tu A378T): unaffected
elfamycin binding (migration in non-denaturing PAGE) (SrEF-Tu A378V): unaffected
elfamycin binding (migration in non-denaturing PAGE) [2]: unable to bind
